Consider 12 compounds from PubChem BioAssay (NCI).

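These data come from cells grown in 96-well plates and exposed to compound for 48 hours at five concentrations. GI50 is the concentration that inhibits growth by half. TGI denotes the concentration required for complete inhibition of growth.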

What all share (assay): NCI tumour cell line growth inhibition, 48 h
Test [1] has as its system HCT-15 colon.
The test system of test [2] is IGROV1 ovarian.
The test system of test [3] is OVCAR-3 ovarian.
Test [4] concerns SF-295 CNS.
Test [5] concerns SK-MEL-2 melanoma.
Test [6] concerns SK-MEL-28 melanoma.
Test [7] relates to SN12C renal.
The test system of test [8] is MOLT-4 leukemia.
The test system of test [9] is SR leukemia.

On to `CCCCCCCCCCCCCP(=O)(NCC(N)=O)OCC` (stereo not given), for which the TGI in test [1] came to 36 µM; in test [2], 39.4 µM; in [3] it was 28.9 µM; in [4] it was 31.2 µM; in test [5], 30.3 µM; in [6], 32.3 µM. This compound had a TGI in test [7] of 34.3 µM.
In the case of `CN1CCc2c1nc(-c1cccnc1)c1c2N(C)CC1`, the TGI in [1], in test [2], in [8], in test [3], in test [4] and in test [5] was above 100 µM each time. Also, the TGI in test [7] was above 100 µM.
For the compound `CCC1C(=O)OCc2c1cc1n(c2=O)C(CC)c2c-1nc1ccccc1c2Cl` (stereo not given), the TGI was above 100 µM in [1]; above 100 µM in test [2]; above 100 µM in test [8]; 47.5 µM in test [3]; 66 µM in [4]; 65.4 µM in test [5]. The TGI in test [6] was above 100 µM.
Consider `COC(=O)/C(C#N)=C1\CCc2ccccc21`, for which the TGI in [1], in [2], in test [8], in test [3], in test [4] and in test [5] was above 100 µM throughout. For the same compound, the TGI in test [6] and in test [7] was above 100 µM throughout.
Take `N.N.N.N.N.O=S(=O)([O-])C(F)(F)F.O=S(=O)([O-])C(F)(F)F.[Os+8]`: the GI50 in test [1] is 17 µM; in test [2], 21.3 µM; in test [8], 0.876 µM; in test [4], 8.07 µM; in test [5] it was 11.7 µM; in test [6], 10.8 µM. Also, in test [7], the GI50 was 12.7 µM. The TGI came out at 56.4 µM in test [1]; 64.1 µM in test [2]; 14.7 µM in test [8]; 62.8 µM in test [4]; 24.7 µM in [5]; 30.2 µM in [6]. In addition, the TGI in test [7] was determined as 37.3 µM.
`O=C(O)[C@@H](NS(=O)(=O)c1ccc2ccccc2c1)c1ccccc1`: the TGI in [1], in [2], in test [8], in test [5], in test [6] and in test [7] was above 100 µM in each case.
Take `O=C(NCC(=O)N1CCOC1=O)OCc1ccccc1`: the TGI in [1], in test [2], in test [8], in [3], in test [4] and in test [5] was above 100 µM in each case. Moreover, the TGI in test [6] and in [7] was above 100 µM in each case.
In the case of `Nc1cc2cccc[n+]2c2cccc(Cl)c12`, the GI50 in test [2] is 69.9 µM; in test [8] it was 7.46 µM; in test [4], 33.4 µM; in [5] it was 10.7 µM; in test [6], 17 µM; in test [7], 7.16 µM. The GI50 in test [9] is 5.58 µM. Moreover, the TGI in [5] is 28.1 µM; in [6] it was 41.7 µM; in test [7], 42.1 µM; in test [9] it was 51.2 µM.
As to `Cc1cc(C)nc(NS(=O)(=O)c2ccc(NC(=O)c3cccn4c(=O)c5ccccc5nc34)cc2)n1`, the TGI in test [1], in [2], in [8], in [4], in test [5] and in test [6] was above 100 µM throughout. Further, the TGI in test [7] and in [9] was above 100 µM throughout.
As to `Cc1nc2c(sc(=S)n2-c2ccccc2)c2nc3ccccc3n12`, the TGI in [1], in test [2], in [8], in test [3], in test [4] and in [5] was above 100 µM in each case. The TGI in [6] and in test [7] was above 100 µM each time.
On to `NC(=O)C12CC3CC(CC(Br)(C3)C1)C2`, for which the TGI in test [1], in test [2], in test [8], in [3], in test [4] and in test [6] was above 100 µM each time. The TGI in test [7] and in [9] was above 100 µM in each case.
Consider `Nc1ncnc2c1nnn2C1C=C(CO)C(O)C1O` (stereo not given), for which the TGI in test [1], in test [2], in [8], in test [3], in test [4] and in test [5] was above 100 µM each time. Further, the TGI is above 100 µM in [6] and above 82.7 µM in test [7].
